From patent EP0812190B1 (priority 1993, dated 1995)
Where two headings read alike, the source gives them in different places.

Columns and labels:
MAO-B [1] = target: T1, MAO-B (Rattus norvegicus, UniProt P19643); assay: in vivo; details: for ED50 / inhibition at 0.5 mg/kg: rat
T1 sequence (P19643 1-520): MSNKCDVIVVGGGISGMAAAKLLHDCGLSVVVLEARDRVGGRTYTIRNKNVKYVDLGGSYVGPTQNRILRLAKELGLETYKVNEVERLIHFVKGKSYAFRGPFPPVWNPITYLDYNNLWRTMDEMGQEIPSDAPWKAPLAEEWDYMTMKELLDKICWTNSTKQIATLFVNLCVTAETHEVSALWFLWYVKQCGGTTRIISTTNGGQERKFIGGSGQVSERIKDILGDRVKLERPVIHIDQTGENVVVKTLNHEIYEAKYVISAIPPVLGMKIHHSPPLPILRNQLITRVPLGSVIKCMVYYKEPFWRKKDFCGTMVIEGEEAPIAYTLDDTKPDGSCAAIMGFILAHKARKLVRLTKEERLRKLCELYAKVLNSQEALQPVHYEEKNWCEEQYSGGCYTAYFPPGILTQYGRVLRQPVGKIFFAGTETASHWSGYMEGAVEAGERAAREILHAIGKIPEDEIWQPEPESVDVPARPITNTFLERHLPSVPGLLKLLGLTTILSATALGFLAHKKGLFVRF
Procedure: Groups of three rats were used for each dose level of inhibitor, and MAO activity determined in brain and liver using the general technique described above. The amount of protein in each incubation was determined using the Folin-Lowry method, and enzyme activity calculated as nmol of substrate metabolized per hour of incubation for each mg of protein. Activity of MAO in tissues from animals treated with inhibitors was expressed as a percentage of the enzyme activity in a group of control animals administered vehicle (water for oral administration, 0.9% saline for ip injection) and killed as above.

MAO-A = target: T2, MAO-A (Rattus norvegicus, UniProt P21396); details: 21 days
T2 sequence (P21396 1-526): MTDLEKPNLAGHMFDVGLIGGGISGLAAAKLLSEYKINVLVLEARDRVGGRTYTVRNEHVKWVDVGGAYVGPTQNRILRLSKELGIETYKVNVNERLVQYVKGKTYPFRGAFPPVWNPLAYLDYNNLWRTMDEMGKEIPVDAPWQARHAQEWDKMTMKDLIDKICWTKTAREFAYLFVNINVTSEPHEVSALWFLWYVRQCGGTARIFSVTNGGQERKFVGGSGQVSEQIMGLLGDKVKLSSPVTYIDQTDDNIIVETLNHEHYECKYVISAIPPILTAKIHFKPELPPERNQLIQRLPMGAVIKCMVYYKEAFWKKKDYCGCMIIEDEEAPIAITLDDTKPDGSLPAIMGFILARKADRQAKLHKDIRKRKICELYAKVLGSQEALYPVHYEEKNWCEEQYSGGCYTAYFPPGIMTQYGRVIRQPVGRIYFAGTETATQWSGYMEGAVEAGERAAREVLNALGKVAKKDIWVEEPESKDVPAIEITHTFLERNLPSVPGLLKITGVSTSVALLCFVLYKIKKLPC
Procedure: (§1) (+)PAI or the racemic mixture at three dose levels (0.05, 0.1 and 0.5mg/kg) by oral administration, one dose daily for 21 days, and decapitated 2 hours after the last dose.

MAO-B [2] = target: T1, MAO-B; assay: in vivo; details: po, read-out: inhibition of brain MAO-B
Procedure: as §1

[3] = system: amphetamine-induced stereotype behavior; details: 0.5 mg/kg/day in drinking water, lateral head movements over 1 minute
Procedure: The extent of this behavior is rated in accordance with the number of lateral head movements over a period of 1 minute.
Following that, amphetamine was injected s.c. at a dose of 0.5 mg/kg. 45 minutes later, lateral head movements were counted.

[4] = system: passive avoidance response
Procedure: [R] (+)PAI or [S] (-)PAI were administered according to one of the following protocols.
Protocol A - Nursing mothers were given a dose of either isomer of 1-1.5 mg/kg/day in drinking water until weaning at 21 days. Following that, the weaned offsprings were directly treated with the same dose for 20 days. Treatment was terminated at 40 days and the test was performed at 60 days, that is 20 days after the last dose of the drug.
Protocol B - The dose was reduced to 0.5 mg/kg/day administered to the nursing mother until weaning at 21 days, then directly to the young rats to 60 days at which time the test was performed. ,
Passive Avoidance Test - The apparatus consisted of a lit chamber adjoining a dark chamber and a sliding door separating the two. At training, a rat was placed in the lit chamber for 30 seconds, and then the door was opened. The rat moved to the dark chamber with a latency that was recorded. Upon entry of the rat into the dark compartment, the door was closed and a 0.3 mA foot-shock was delivered for 3 seconds.

guinea-pig ileum [5] = system: guinea-pig ileum
guinea-pig ileum [6] = details: bethanechol 0.8 µM; PAI HCl 20 µM
guinea-pig ileum [7] = assay: tissue or blood; details: Cavia porcellus, read-out: Percent relaxation
guinea-pig ileum [8] = assay: tissue or blood; details: Cavia porcellus, read-out: Percent relaxation; remark: listed apart in the source
[9] = Protocol A, Anoxia-lesioned rats
[10] = Protocol B, Anoxia-lesioned rats

## C#CCN[C@@H]1CCc2ccccc21 [[R](+)PAI, R(+)-N-propargyl-1-aminoindan]
MAO-B [1]; dose of 1mg/kg
  inhibition of MAO-B in brain and liver: complete inhibition
MAO-B [1]; ip, 1 h, read-out: IC-50 MAO-B I.P. BRAIN
  ED50: 0.07 mg/kg
MAO-B [1]; ip, 1 h, read-out: IC-50 MAO-B I.P. LIVER
  ED50: 0.06 mg/kg
MAO-B [1]; ip, read-out: inhibition of brain MAO-B activity
  inhibition at 0.5 mg/kg: 90%
MAO-B [1]; po, 2 h, read-out: IC-50 MAO-B P.O. BRAIN
  ED50: 0.17 mg/kg
MAO-B [1]; po, 2 h, read-out: IC-50 MAO-B P.O. LIVER
  ED50: 0.05 mg/kg
MAO-B [1]; po, read-out: inhibition of MAO-B
  inhibition at 0.5 mg/kg: 80%
MAO-A; 0.1mg/kg daily oral
  inhibition of brain MAO-A: ≤ 20%
MAO-A; 0.5mg/kg daily oral
  inhibition of MAO-A: less than 50%
MAO-B [2]
  inhibition at 0.1 mg/kg: > 80%
[3]; control senescent rats, 45 min after amphetamine 0.5 mg/kg s.c.
  Stereotype Behavior Rating: 126±16
[3]; hypoxia lesioned senescent rats
  Stereotype Behavior Rating: 143±6
[4]; [9]
  latency After Electroshock: 239 ± 99 s
  latency Before Electroshock: 49 ± 10 s
[4]; Protocol A, Anoxia-lesioned rats, versus corresponding anoxia group
  percent increase of latency After Electroshock: 19%
[4]; Protocol A, Control rats
  latency After Electroshock: 220 ± 100 s
[4]; Protocol A, Control rats, versus corresponding control group
  percent increase of latency After Electroshock: +9%
[4]; Protocol B (0.5 mg/kg/day), Control rats
  latency Before Electroshock: 48 ± 11 s
[4]; [10]
  latency After Electroshock: 137 ± 126 s
  latency Before Electroshock: 52 ± 12 s
  percent increase of latency After Electroshock: +15%
[4]; Protocol B, Control rats
  latency After Electroshock: 128 ± 119 s
  percent increase of latency After Electroshock: +23%
guinea-pig ileum [5]; bethanechol 0.8 µM, 400 µM PAI HCl enantiomer
  gram-tension: 0.2 gram-tension
guinea-pig ileum [5]; bethanechol 2 µM, 400 µM enantiomer
  gram-tension: 0.3 gram-tension
guinea-pig ileum [5]; bethanechol 4 µM, 400 µM enantiomer
  gram-tension: 0.7 gram-tension
guinea-pig ileum [5]; bethanechol 8 µM, 400 µM enantiomer
  gram-tension: 1.0 gram-tension
guinea-pig ileum [5]; bethanechol 20 µM, 400 µM enantiomer
  gram-tension: 2.0 gram-tension
guinea-pig ileum [5]; bethanechol 40 µM, 400 µM enantiomer
  gram-tension: 2.8 gram-tension
guinea-pig ileum [5]; bethanechol 80 µM, 400 µM enantiomer
  gram-tension: 3.1 gram-tension
guinea-pig ileum [5]; bethanechol 200 µM, 400 µM enantiomer
  gram-tension: 4.3 gram-tension
guinea-pig ileum [6]
  Percent relaxation: 25%
guinea-pig ileum [7]
  inhibition at 2 µM: 0%
  inhibition at 4 µM: 0%
  inhibition at 10 µM: 0%
  inhibition at 40 µM: 37%
  inhibition at 400 µM: 100%
  inhibition at 700 µM: 100%
guinea-pig ileum [8]
  inhibition at 60 µM: 25 to 50%
